Assay results as given in patent publication US20030004165A1, “Polyazanaphthalene compounds and pharmaceutical use thereof” (AJINOMOTO CO. INC, priority 1999, published 2003).

How the values were obtained:
[1] = test system: MMP-3 (stromelysin-1) production by human joint normal synovial interstitial cells; test: Inhibition of IL-1β-induced MMP-3 production from synovial cells; type: cell-based; settings: IL-1β 0.5 ng/ml stimulation, 16 to 18 hours, MMP-3 in culture fluid
Method: Evaluation of Inhibiting Production of Matrix Metalloprotease (MMP) Collected From Synovial Cells
The human joint normal synovial interstitial cells (cell System-SS cells, Dainippon Pharmaceutical Co., Ltd.) were seeded on a 96-well plate in a concentration of 1×10^4 cells/well and cultured overnight. 30 minutes after the addition of the subject pharmaceutical compounds in a proper concentration, IL-1β was added to each well so as to obtain the final concentration of 0.5 ng/ml. After culturing overnight (16 to 18 hours) again, a culture fluid was collected and the amount of MMP-3 (stromelysin-1) in the culture fluid was determined. MMP-3 was determined with a test kit for determining stromelysin-1 (SL) in serum (Fuji Chemical Industries Ltd.), in accordance with an instruction book attached to the kit. When no stimulation was seen, the production amount was defined as 0% and when only […] stimulation was seen, the amount was defined as 100%.

[2] = test system: TNF α production by Balb/c mouse peritoneal cells; test: Inhibition of LPS-induced TNF α production from mouse peritoneal cells; type: cell-based; settings: LPS 10 μg/ml stimulation, 16 to 18 hours, TNF α by sandwich ELISA
Method: Evaluation of Inhibiting Production of Tumor Necrosis Factors (TNF)
RPMI medium was injected into a peritoneal cavity of Balb/c mouse (Charles River Japan, Inc.) and the peritoneal cells were collected. The peritoneal cells were seeded on a 96-well plate in a concentration of 1×10^4 cells/well. 30 minutes after the addition of the subject pharmaceutical compounds in a proper concentration, LPS (sigma, L-5886) was added to each well so as to obtain the final concentration of 10 μg/ml. After culturing overnight (16 to 18 hours) again, a culture fluid was collected and the amount of TNF α in the culture fluid was determined. Mouse TNF α was determined by the means of a sandwitch ELISA and anti-mouse TNF a hamster monoclonal antibody (Genzyme 1221-00) was used as the first antibody, anti-mouse TNF α rabbit polyclonal antibody (Genzyme, IP-400) as the second antibody, and alkaliphosphatase conjugate anti-rabbit IgG polyclonal goat antibody as the third antibody. Then, optical absorbance of alkaliphosphatase substrate (p-nitrophosphate) was determined and converted into the production amount. When no stimulation was seen, the production amount was defined as 0% and when only […] stimulation was seen, the amount was defined as 100%.

TNF Inhibition Activity (IC50) [2] [µg/mL] | SMILES | MMP Inhibition Activity (IC50) [1] [µg/mL]
0.6 | COc1ccc(-c2cnc3cc(N)ncc3c2)cc1OC.Cl [Example 18, 7-Amino-3-(3,4-Dimethoxyphenyl)-1,6-Naphthylidine Hydrochloride] | 0.31
1 | COc1ccc(-c2cnc3ccnc(Cl)c3c2)cc1OC [Example 19, 5-Chloro-3-(3,4-Dimethoxyphenyl)-1,6-Naphthylidine] | 
0.3 | COc1ccc(-c2cnc3ccnc(N)c3c2)cc1OC [Example 20, 5-Amino-3-(3,4-Dimethoxyphenyl)-1,6-Naphthylidine] | 0.16
0.02 | COc1ccc(-c2cnc3cnccc3c2)cc1OC [Example 22, 3-(3,4-Dimethoxyphenyl)-1,7-Naphthylidine] | 1.25
0.1 | COc1ccc(-c2cnc3ncccc3c2)cc1OC [Example 23, 3-(3,4-Dimethoxyphenyl)-1,8-Naphthylidine] | 
0.6 | COc1ccc(-c2ccc3cnccc3n2)cc1OC [Example 24, 2-(3,4-Dimethoxyphenyl)-1,6-Naphthylidine] | 1.25
0.01 | COc1ccc(-c2cnc3ccncc3c2)cc1OC1CCCC1 [Example 26, 3-(3-Cyclopentyloxy-4-Methoxyphenyl)-1,6-Naphthylidine] | 

SMILES | TNF Inhibition Activity (IC50) [2] [µg/mL] | MMP Inhibition Activity (IC50) [1] [µg/mL]
COc1ccc(-c2cnc3ccncc3c2)cc1OC [Example 1, 3-(3,4-Dimethoxyphenyl)-1,6-Naphtylidine] | 0.5 | 1.25
